How the values were obtained:
[1] = target: His-tagged KRAS G12D protein (Homo sapiens, UniProt P01116, G12D); test: KRAS G12D TR-FRET Assay; assay type: binding
Procedure: Compounds of interest were prepared in a dose-response titration in DMSO, and 80 nL were added via Labcyte Echo to each well of a 384-well plate (Perkin Elmer 6008280). […] The plate was incubated for 30 minutes at room temperature. Biotinylated KRPep-2d substrate (Amgen) was diluted to 20 nM in Assay Buffer and 2 μL was added to all wells and incubated for 1 h at room temperature. Detection Reagent (0.4 nM LANCE Eu-W1024 Anti-6xHis (Perkin Elmer AD0401), 5 nM streptavidin-d2 (Cisbio 610SADLA)) was prepared in Assay Buffer, then 4 μL was added to the plate and incubated for 1 h at room temperature. Plates were read using PerkinElmer EnVision (ex: 320 nm, em1: 665 nm, em2: 615 nm) and em1/em2 data was used to generate curve fits using a 4-parameter logistic model to calculate IC50 values.

[2] = target: GDP-bound KRAS protein (aa 1-169), containing both G12D and C118A amino acid substitutions (Homo sapiens, UniProt P01116, C118A/G12D); test: KRAS G12D Coupled Nucleotide Exchange Assay; assay type: biochemical; settings: 2 h compound pre-incubation
Procedure: Following compound pre-incubation, purified SOS protein (aa 564-1049) and GTP (Roche 10106399001) were added to the assay wells and incubated for an additional 30 min. […] The assay plates were then read on a PerkinElmer EnVision Multilabel Reader, using AlphaScreen® technology, and data were analyzed using a 4-parameter logistic model to calculate IC50 values.

[3] = test system: Phosphorylation of ERK1/2 in A-427 cells; test: Phospho-ERK1/2 MSD Assay (A-427 cells); assay type: cell-based; settings: Homo sapiens, A-427, 2 h, 2 h treatment, read-out: p-ERK (A427 cells) IC50
Procedure: (§1) A-427 (ATCC® HTB-53™) cells were cultured in RPMI 1640 Medium (ThermoFisher Scientific 11875093) containing 10% fetal bovine serum (ThermoFisher Scientific 16000044) and 1× penicillin-streptomycin-glutamine (ThermoFisher Scientific 10378016). Sixteen hours prior to compound treatment, A-427 cells were seeded in 96-well cell culture plates at a density of 25,000 cells/well and incubated at 37° C., 5% CO2. A compound dose-response titration was diluted in growth media, added to appropriate wells of a cell culture plate, and then incubated at 37° C., 5% CO2 for 2 h. Following compound treatment, cells were washed with ice-cold Dulbecco's phosphate-buffered saline, no Ca^2+ or Mg^2+ (ThermoFisher Scientific 14190144), and then lysed in RIPA buffer (50 mM Tris-HCl pH 7.5, 1% Igepal, 0.5% sodium deoxycholate, 150 mM NaCl, and 0.5% sodium dodecyl sulfate) containing protease inhibitors (Roche 4693132001) and phosphatase inhibitors (Roche 4906837001). Phosphorylation of ERK1/2 in compound-treated lysates was assayed using Phospho-ERK1/2 Whole Cell Lysate kits (Meso Scale Discovery K151DWD) according to the manufacturer's protocol. Assay plates were read on a Meso Scale Discovery Sector Imager 6000, and data were analyzed using a 4-parameter logistic model to calculate IC50 values.

[4] = test system: Phosphorylation of ERK1/2 in AsPC-1 cells; test: Phospho-ERK1/2 MSD Assay (AsPC-1 cells); assay type: cell-based; settings: Homo sapiens, ASPC1, 2 h, 2 hours treatment, read-out: p-ERK (AsPC-1 cells) IC50
Procedure: as §1, with “AsPC-1” for “A-427”, “CRL-1682™)” for “HTB-53™)”, “hours.” for “h.”

Sequence of GDP-bound KRAS protein (aa 1-169), containing both G12D and C118A amino acid substitutions (P01116 1-169 isoform P01116-2 G12D/C118A): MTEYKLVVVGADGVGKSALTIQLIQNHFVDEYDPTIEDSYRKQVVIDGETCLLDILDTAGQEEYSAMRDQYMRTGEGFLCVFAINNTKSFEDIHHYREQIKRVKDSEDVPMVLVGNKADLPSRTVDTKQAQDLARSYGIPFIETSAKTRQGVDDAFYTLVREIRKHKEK
Sequence of His-tagged KRAS G12D protein (P01116 1-188 isoform P01116-2 G12D): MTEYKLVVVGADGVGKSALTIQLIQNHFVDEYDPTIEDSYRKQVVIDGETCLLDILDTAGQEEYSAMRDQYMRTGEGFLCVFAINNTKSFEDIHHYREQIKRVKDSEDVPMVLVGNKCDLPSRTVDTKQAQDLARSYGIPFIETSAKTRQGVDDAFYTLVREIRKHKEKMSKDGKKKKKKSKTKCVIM

| Structure (SMILES) | IC50 [1] | Avg 2 h Coupled Exchange IC50 [2] | IC50 [3] | IC50 [4] |
| --- | --- | --- | --- | --- |
| CN1C[C@H](F)C[C@H]1COc1nc(N2[C@@H]3CNC[C@H]2COC3)c2ccc(-c3cc(O)cc4ccccc34)c(F)c2n1 [Example 6, 4-(4-((1R,5S)-3-oxa-7,9-diazabicyclo[3.3. 1]nonan-9-yl)-8-fluoro-2-(((2S,4R)-4-fluoro-1-methylpyrrolidin-2-yl)methoxy)quinazolin-7-yl)naphthalen-2-ol] | 49 nM | 22 nM | 2310 nM | 5130 nM |
| CN1C[C@H](F)C[C@H]1COc1nc(N2C[C@H]3C[C@@H](C2)N3)c2ccc(-c3cc(O)cc4ccccc34)c(F)c2n1 [Example 7, 4-(4-((1R,5S)-3,6-diazabicyclo[3.1. 1]heptan-3-yl)-8-fluoro-2-(((2S,4R)-4-fluoro-1-methylpyrrolidin-2-yl)methoxy)quinazolin-7-yl)naphthalen-2-ol] | 75 nM | 35 nM | 3510 nM | 3300 nM |
| Oc1cc(-c2ccc3c(N4C[C@H]5C[C@@H](C4)N5)nc(OCC45CCCN4CC(F)(F)C5)nc3c2F)c2ccccc2c1 (stereo partly drawn) [Example 8, 4-(4-((1R,5S)-3,6-diazabicyclo[3.1. 1]heptan-3-yl)-2-((2,2-difluorotetrahydro-1H-pyrrolizin-7a(5H)-yl)methoxy)-8-fluoroquinazolin-7-yl)naphthalen-2-ol] | 92 nM | 87 nM | 7880 nM | 6940 nM |
| CN1CCC[C@H]1CCOc1nc(N2[C@@H]3CNC[C@H]2COC3)c2ccc(-c3cc(O)cc4ccccc34)c(F)c2n1 [Example 9, 4-(4-((1R,5S)-3-oxa-7,9-diazabicyclo[3.3. 1]nonan-9-yl)-8-fluoro-2-(2-((S)-1-methylpyrrolidin-2-yl)ethoxy)quinazolin-7-yl)naphthalen-2-ol] | 456 nM | 125 nM | > 25000 nM | > 25000 nM |
| Oc1cc(-c2ccc3c(N4[C@@H]5CNC[C@H]4COC5)nc(OCC45CCCN4CC(F)(F)C5)nc3c2F)c2ccccc2c1 (stereo partly drawn) [Example 10, 4-(4-((1R,5S)-3-oxa-7,9-diazabicyclo[3.3. 1]nonan-9-yl)-2-((2,2-difluorotetrahydro-1H-pyrrolizin-7a(5H)-yl)methoxy)-8-fluoroquinazolin-7-yl)naphthalen-2-ol] | 106 nM | 132 nM | 5240 nM | 6270 nM |
| Oc1cc(-c2ccc3c(N4[C@@H]5CC[C@H]4CNC5)nc(OC[C@@]45CCCN4C[C@H](F)C5)nc3c2)c2ccccc2c1 [Example 11, 4-(4-((1R,5S)-3,8-diazabicyclo[3.2. 1]octan-8-yl)-2-(((2R,7aS)-2-fluorotetrahydro-1H-pyrrolizin-7a(5H)-yl)methoxy)quinazolin-7-yl)naphthalen-2-ol] | 21 nM | 9 nM | 2510 nM | 1530 nM |
| Oc1cc(-c2c(F)cc3c(N4C[C@H]5C[C@@H](C4)N5)nc(OC[C@@]45CCCN4C[C@H](F)C5)nc3c2F)c2ccccc2c1 [Example 13, 4-(4-((1R,5S)-3,6-diazabicyclo[3.1. 1]heptan-3-yl)-6,8-difluoro-2-(((2R,7aS)-2-fluorotetrahydro-1H-pyrrolizin-7a(5H)-yl)methoxy)quinazolin-7-yl)naphthalen-2-ol] | 7 nM | 6 nM | 238 nM | 1730 nM |
| Oc1cc(-c2c(F)cc3c(N4[C@@H]5CNC[C@H]4COC5)nc(OC[C@@]45CCCN4C[C@H](F)C5)nc3c2F)c2ccccc2c1 [Example 14, 4-(4-((1R,5S)-3-oxa-7,9-diazabicyclo[3.3.1]nonan-9-yl)-6,8-difluoro-2-(((2R,7aS)-2-fluorotetrahydro-1H-pyrrolizin-7a(5H)-yl)methoxy)quinazolin-7-yl)naphthalen-2-ol] | 9 nM | 8 nM | 274 nM | 762 nM |
| Oc1cc(-c2c(F)cc3c(N4C[C@H]5COC[C@@H](C4)N5)nc(OC[C@@]45CCCN4C[C@H](F)C5)nc3c2F)c2ccccc2c1 [Example 15, 4-(4-((1R,5S)-3-oxa-7,9-diazabicyclo[3.3. 1]nonan-7-yl)-6,8-difluoro-2-(((2R,7aS)-2-fluorotetrahydro-1H-pyrrolizin-7a(5H)-yl)methoxy)quinazolin-7-yl)naphthalen-2-ol] | 20 nM | 14 nM | 1550 nM | 3220 nM |
| CN1C[C@H](F)C[C@H]1COc1nc(N2[C@@H]3CC[C@H]2CNC3)c2cc(F)c(-c3cc(O)cc4ccccc34)c(F)c2n1 [Example 17, 4-(4-((1R,5S)-3,8-diazabicyclo[3.2. 1]octan-8-yl)-6,8-difluoro-2-(((2S,4R)-4-fluoro-1-methylpyrrolidin-2-yl)methoxy)quinazolin-7-yl)naphthalen-2-ol] | 26 nM | 17 nM | 1290 nM | 949 nM |
| CN1C[C@H](F)C[C@H]1COc1nc(N2[C@@H]3CNC[C@H]2COC3)c2cc(F)c(-c3cc(O)cc4ccccc34)c(F)c2n1 [Example 18, 4-(4-((1R,5S)-3-oxa-7,9-diazabicyclo[3.3. 1]nonan-9-yl)-6,8-difluoro-2-(((2S,4R)-4-fluoro-1-methylpyrrolidin-2-yl)methoxy)quinazolin-7-yl)naphthalen-2-ol] | 60 nM | 18 nM | 1590 nM | 2960 nM |
| CN1C[C@H](F)C[C@H]1COc1nc(N2C[C@H]3C[C@@H](C2)N3)c2cc(F)c(-c3cc(O)cc4ccccc34)c(F)c2n1 [Example 19, 4-(4-((1R,5S)-3,6-diazabicyclo[3.1. 1]heptan-3-yl)-6,8-difluoro-2-(((2S,4R)-4-fluoro-1-methylpyrrolidin-2-yl)methoxy)quinazolin-7-yl)naphthalen-2-ol] | 58 nM | 28 nM | 1790 nM | 2090 nM |
| Oc1cc(-c2c(F)cc3c(N4C[C@H]5C[C@@H](C4)N5)nc(OCC45CCCN4CC(F)(F)C5)nc3c2F)c2ccccc2c1 (stereo partly drawn) [Example 20, 4-(4-((1R,5S)-3,6-diazabicyclo[3.1. 1]heptan-3-yl)-2-((2,2-difluorotetrahydro-1H-pyrrolizin-7a(5H)-yl)methoxy)-6,8-difluoroquinazolin-7-yl)naphthalen-2-ol] | 87 nM | 40 nM | 7280 nM | 5560 nM |
| CN1CCC[C@H]1CCOc1nc(N2C[C@H]3C[C@@H](C2)N3)c2cc(F)c(-c3cc(O)cc4ccccc34)c(F)c2n1 [Example 21, 4-(4-((1R,5S)-3,6-diazabicyclo[3.1. 1]heptan-3-yl)-6,8-difluoro-2-(2-((S)-1-methylpyrrolidin-2-yl)ethoxy)quinazolin-7-yl)naphthalen-2-ol] | 314 nM | 78 nM | 18100 nM | 9080 nM |

Reference: patent US20250059205A1, “Heterocyclic Compounds and Methods of Use” (AMGEN INC., priority 2021, published 2025)
